# In patent publication US20240245664A1, “METHODS OF USING USP15 INHIBITORS” (The Curators of the University of Missouri, priority 2021, published 2024):
# Entries after “also recorded” stand apart in the source; their conditions may differ. Residues, ends and D or L forms follow the SMILES beside them. *: point of attachment. Cbz = O=C(OCc1ccccc1)*
# Assays:
# USP15 [1] = molecular target: T1, USP15 (Homo sapiens, UniProt Q9Y4E8); assay: In vitro deubiquitylation assay with recombinant USP15 (rUSP15); conditions: for activity of USP15 (deubiquitylation of polyubiquitylated GSPT1): 37° C., 0.5 h
# T1 sequence (Q9Y4E8 1-981): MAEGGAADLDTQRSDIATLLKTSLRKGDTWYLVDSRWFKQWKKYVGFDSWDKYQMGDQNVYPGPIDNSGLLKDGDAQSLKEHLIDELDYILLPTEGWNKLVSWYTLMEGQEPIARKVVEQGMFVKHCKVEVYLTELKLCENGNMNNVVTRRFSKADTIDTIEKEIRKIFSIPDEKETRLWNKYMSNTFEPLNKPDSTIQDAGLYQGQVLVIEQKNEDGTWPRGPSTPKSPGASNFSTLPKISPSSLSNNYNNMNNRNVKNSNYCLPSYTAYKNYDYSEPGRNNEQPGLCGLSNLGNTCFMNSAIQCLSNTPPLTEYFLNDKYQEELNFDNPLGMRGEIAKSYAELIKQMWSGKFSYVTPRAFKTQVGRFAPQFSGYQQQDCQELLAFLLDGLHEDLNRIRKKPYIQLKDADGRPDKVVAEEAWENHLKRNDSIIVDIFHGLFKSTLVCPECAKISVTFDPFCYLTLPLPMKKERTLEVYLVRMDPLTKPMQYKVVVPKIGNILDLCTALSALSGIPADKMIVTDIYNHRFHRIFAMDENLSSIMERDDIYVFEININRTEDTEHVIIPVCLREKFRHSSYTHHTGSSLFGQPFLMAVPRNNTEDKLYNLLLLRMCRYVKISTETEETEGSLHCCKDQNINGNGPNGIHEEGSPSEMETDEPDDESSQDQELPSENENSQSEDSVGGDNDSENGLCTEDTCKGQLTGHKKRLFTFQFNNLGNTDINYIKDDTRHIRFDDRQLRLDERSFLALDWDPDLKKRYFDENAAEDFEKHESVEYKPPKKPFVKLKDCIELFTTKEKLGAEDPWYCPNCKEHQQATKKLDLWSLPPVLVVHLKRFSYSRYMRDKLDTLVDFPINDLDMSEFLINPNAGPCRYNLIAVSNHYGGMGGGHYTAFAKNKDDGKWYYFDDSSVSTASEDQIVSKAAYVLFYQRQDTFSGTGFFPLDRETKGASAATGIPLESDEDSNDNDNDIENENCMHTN
# From the text: GSPT1(Ub)n: polyubiquitylated GSPT1.
# SE and LE: short and long exposures. GSPT1(Ub)n: polyubiquitylated GSPT1.
# LN229 cells = conditions: no glutamine, MSO 2 mM, 5 days
# Method: FIG. 3E depicts quantification of cell viability. […] An equal number of cells (1×10^6 cells in 10-cm plates) were then shifted to medium without glutamine in the presence (+) or absence (−) of the GS inhibitor MSO (2 mM) for 5 days, after which cell viability was quantified by staining with 0.4% Trypan blue. Cell viability was normalized to MSO-untreated control (−), which was set to 100%.
# GS [2] = assay: GS stability in mTOR-shRNA 293FT cells treated with MLN4924 or MSO; format: cell-based; conditions: mTOR-shRNA TRIPZ_3 293FT cells, treated 14 h
# Method: Cells were treated with different concentrations of MLN4924 for 14 h. Cell extracts were analyzed by IB with the indicated antibodies.
# Cells were treated with different concentrations of MSO (G) for 14 h. Cell extracts were analyzed by IB with the indicated antibodies.
# GS [3] = assay: GS ubiquitylation in USP15-/- 293FT cells, TUBE2 pulldown; format: cell-based; conditions: for accumulation of ubiquitylated GS under CB-5083 with co-treatment: pre-treated 2 μM MLN4924 or 2 mM MSO 0.5 h, then CB-5083 6 h
# From the text: FIG. 3B depicts a Western blot. […] Total ubiquitylated proteins were purified using TUBE2-agarose.
# GS [4] = assay: Rescue of endogenous GS protein levels in USP15-KO 293FT cells, immunoblot; format: cell-based; conditions: 2 μM MLN4924 or 2 mM MSO
# Method: Cell extracts were analyzed by IB with the indicated antibodies.
# GSPT1 = assay: CC-885-induced GSPT1 ubiquitylation and degradation in USP15-/- 293FT cells with inhibitors
# GS [5] = assay: Glutamine-induced GS degradation in H1299 cells co-treated with DUB inhibitor and MLN4924; format: cell-based; conditions: 2 μM MLN4924 with NSC632839 or PR-619, 4 mM glutamine 8 h
# Method: FIG. 1G depicts a Western blot. […] Cell extracts were analyzed by IB. The relative ratio of GS:Actin is shown.
# FIG. 1H depicts a Western blot. […] Cell extracts were analyzed by IB. The relative ratio of GS:Actin is shown.
# GS [6] = assay: Glutamine-induced GS ubiquitylation, TUBE2 pulldown and immunoblot in MCF7 cells; format: cell-based; conditions: MCF7 cells starved of glutamine 24 h; 40 μM NSC632839 or 20 μM PR-619 0.5 h, then 4 mM glutamine 2 h
# Method: FIG. 1D depicts a Western blot. MCF7 cells, starved of glutamine for 24 h, were treated with MG132 (10 μM) and/or 40 μM NSC632839, 20 μM PR-619 for 0.5 h, followed by 4 mM glutamine treatment for 2 h. Total ubiquitylated proteins were purified using TUBE2-agarose, and then analyzed by IB with indicated antibodies. The relative ratio of ubiquitylated GS, GS(Ub)n to input GS, normalized to that of glutamine-treated cells in lane 2, are shown.
# GS [7] = assay: Endogenous GS protein level by immunoblot in glutamine-treated MCF7 cells; format: cell-based; conditions: MCF7 cells starved of glutamine 24 h; inhibitor 0.5 h, then 4 mM glutamine 10 h
# Method: FIG. 1E depicts a Western blot. MCF7 cells, starved of glutamine for 24 h, were treated with NSC632839 for 0.5 h, followed by 4 mM glutamine treatment for 10 h. Cell extracts were analyzed by IB. The relative ratio of GS:Actin is shown.
# FIG. 1F depicts a Western blot. MCF7 cells, starved of glutamine for 24 h, were treated with PR-619 for 0.5 h, followed by 4 mM glutamine treatment for 10 h. Cell extracts were analyzed by IB. The relative ratio of GS:Actin is shown.
# GS [8] = assay: Glutamine-induced GS degradation in glutamine-starved H1299 cells with Torin1 and CB5083; format: cell-based
# Method: FIG. 8A depicts a Western blot. Glutamine-starved H1299 cells, pre-treated with 250 nM Torin1 and 10 μM CB5083 for 0.5 h, were stimulated with 4 mM glutamine for 4 h. Cell extracts were analyzed by IB with the indicated antibodies.
# mTORC1 = assay: Glutamine-induced serine phosphorylation of USP15^Flag and USP15-GS binding, IP in 293FT cells; format: cell-based
# Method: FIG. 7B depicts a Western blot. 293FT cells, transfected with CT or USP15^Flag plasmid for 24 h, were grown in complete medium (C; 2 mM glutamine) or starved of glutamine for 24 h, then treated with Torin1 for 0.5 h, followed by 4 mM glutamine treatment for 1-2 h. Cell extracts were immunoprecipitated with anti-Flag. The relative ratios of phosphorylated serine USP15^Flag to total input USP15^Flag and endogenous GS interacted with USP15^Flag to input GS, normalized to that of untreated cells in lane 3, are shown.
# USP15 [9] = assay: USP15 S229 phosphorylation by mass spectrometry in 293FT cells; format: cell-based; conditions: 250 nM Torin1 16 h vs DMSO
# Method: FIG. 10C depicts the phosphorylation peptide abundance calculated by phosphorylated peptides/(phosphorylated peptides+unmodified peptides)*100%. The abundance of S229 phosphorylation (P-S229) was calculated and represented as mean±SD; n=2 per group (p=0.01035 by t test).
# To map the phosphorylation sites of USP15, which has 32 potential serine/threonine phosphorylation sites reported in ‘PhosphoSitePlus’ with the most prevalent serine 229, USP15^Flag was immune-purified from 293FT cells treated with DMSO or 250 nM Torin1 for 16 h and analyzed by MS analysis. […] Moreover, it represents an mTOR consensus sequence motif S/T-P (where S is serine; T is threonine; and P is proline) (FIG. 10B). […] Thus, the MS data were consistent with the other results, showing that USP15 was phosphorylated at serine in an mTORC1-dependent manner (FIG. 7B-7C).
# MS analysis to identify the phosphorylation sites of USP15 was done at the Charles W. Gehrke proteomics center—University of Missouri, as described previously (Peterson T R, et al., Cell. 2009; 137(5):873-86. Epub 2009/05/19).
# GS [10] = conditions: Jurkat cells, treated 4 h; cited from earlier work
# RPMI8226 cells = assay: RPMI8226 cell number/viability, PR-619 with lenalidomide, Trypan blue; format: cell-based; conditions: PR-619 1 μM with lenalidomide, 4 days
# From the text: FIG. 6G depicts total cell number after different treatment conditions. […] Error bars represent the SEM of triplicates (P<0.003 by t test).
# [11] = system: cysteine protease DUBs, including USP15; conditions: cited from earlier work
# U266 cells = assay: Neo-substrate degradation in U266 cells, PR-619 with lenalidomide, immunoblot; format: cell-based; conditions: PR-619 2 μM 1 h, lenalidomide 0, 2 and 10 μM 6 h
# Method: FIG. 6L depicts a Western blot. […] Cell extracts were analyzed by SDS-PAGE and immunoblotting with indicated antibodies.
compound,measurement,setting,value
CCN1C(=O)C=CC1=O [N-Ethylmaleimide],activity of USP15 (deubiquitylation of polyubiquitylated GSPT1),USP15 [1]; NEM 20 mM (FIG. 5B legend),completely inhibited
"CS(=N)(=O)CC[C@H](N)C(=O)O (stereo partly drawn) [MSO, L-Methionine sulfoximine]","cell viability, combined with USP15 depletion by shRNAs",LN229 cells; LN229 cells with USP15 shRNAs,synergistic inhibition of cell viability
same,cell viability,LN229 cells; control LN229 cells,severe defect in cell viability
same,effect of mTOR depletion by shRNA on GS stability,GS [2],rescued the effect of mTOR depletion by shRNA on GS stability
same,accumulation of ubiquitylated GS under CB-5083 with co-treatment,GS [3],but not in cells co-treated with MLN4924 and MSO
same,downregulation of endogenous GS protein levels in USP15-KO cells,GS [4],rescued
NS(=O)(=O)OC[C@@H]1C[C@@H](n2ccc3c(N[C@H]4CCc5ccccc54)ncnc32)C[C@@H]1O [MLN4924],effect of mTOR depletion by shRNA on GS stability,GS [2],rescued the effect of mTOR depletion by shRNA on GS stability
same,accumulation of polyubiquitylated GSPT1 (CC-885 with MG132 or CB-5083) in presence of MLN4924,"GSPT1; USP15-/- 293FT cells, 2 μM MLN4924",completely abolished
same,accumulation of ubiquitylated GS under CB-5083 with co-treatment,GS [3],but not in cells co-treated with MLN4924 and MSO
same,effect on action of DUB inhibitors on glutamine-induced GS degradation,GS [5],blocked the action of DUB inhibitors on glutamine-induced GS degradation
same,downregulation of endogenous GS protein levels in USP15-KO cells,GS [4],rescued
Cc1ccc(/C=C2\CNC/C(=C\c3ccc(C)cc3)C2=O)cc1.Cl [NSC632839],glutamine-induced ubiquitylation of GS,GS [6],promoted glutamine-induced ubiquitylation of GS
same,protein levels of endogenous GS,GS [7],decreased protein levels of endogenous GS
Cc1cc2c(C(N)=O)cccc2n1-c1nc2c(c(NCc3ccccc3)n1)COCC2 [CB-5083],Torin-1-promoted glutamine-induced GS degradation with p97 inhibitor,"GS [8]; H1299 cells, 10 μM CB5083 with 250 nM Torin1",blunted
same,accumulation of ubiquitylated GS,"GS [3]; 0.5 mM glutamine, CB-5083 6 h",accumulation of ubiquitylated GS was observed
CCC(=O)N1CCN(c2ccc(-n3c(=O)ccc4cnc5ccc(-c6cnc7ccccc7c6)cc5c43)cc2C(F)(F)F)CC1 [Torin1],glutamine-induced phosphorylated serine USP15^Flag (P-Ser-USP15),mTORC1; Torin1 0.5 h then 4 mM glutamine 1-2 h,substantially abolished
same,binding of USP15 to GS,mTORC1; Torin1-treated,significant reduction in binding of USP15 to GS
same,S229 phosphorylation of USP15,USP15 [9],significantly decreased
same,glutamine-induced GS degradation,"GS [8]; glutamine-starved H1299 cells, 250 nM Torin1, 4 mM glutamine 4 h",promoted glutamine-induced GS degradation
CC(C)C[C@@H](C=O)NC(=O)[C@H](CC(C)C)NC(=O)[C@H](CC(C)C)NC(=O)OCc1ccccc1 [MG132] (Cbz-Leu-Leu-Leu-aldehyde),CC-885-induced degradation of GSPT1,GSPT1; USP15-/- 293FT cells co-treated with CC-885 and inhibitor,blocked
same,polyubiquitylated GSPT1 on co-treatment with CC-885,"GSPT1; USP15-/- 293FT cells, 10 μM CB-5083 or 20 μM MG132, 10 μM CC-885 3 h",polyubiquitylated GSPT1 was accumulated
same,GS ubiquitylation (SILAC ubiquitinome),GS [10],increased ubiquitylation of GS
N#CSc1cc(SC#N)c(N)nc1N [PR-619],glutamine-induced ubiquitylation of GS,GS [6],promoted glutamine-induced ubiquitylation of GS
same,sensitization to lenalidomide (cell number/viability),RPMI8226 cells,sensitized resistant cell line RPMI8226 to lenalidomide
same,protein levels of endogenous GS,GS [7],decreased protein levels of endogenous GS
same,activity of USP15 (deubiquitylation of polyubiquitylated GSPT1),USP15 [1]; PR-619 100 μM,completely inhibited
same,USP15 activity,USP15 [1]; PR-619 concentration range 1-20 μM,substantially suppressed USP15 activity in a dose-dependent manner
same,inhibition of DUB activity (previous study),[11],"can inhibit the activity of almost all cysteine protease DUBs, including USP15"
same,degradation of neo-substrates on co-treatment with lenalidomide,U266 cells,significantly promoted degradation of neo-substrates
same,GS ubiquitylation (SILAC ubiquitinome),GS [10],decreased GS ubiquitylation; also recorded: decreased the ubiquitination of GS
